Test results published in patent US20230233569A1 (Revolution Medicines, Inc., priority 2020, published 2023).

What was measured:
Experiment in all cases: Ras-Raf disruption / FRET / MOA assay (BRAF RBD)
Format in all cases: biochemical
KRAS G12C = KRAS G12C (Homo sapiens, UniProt P01116+P62937, G12C); conditions: Ras-Raf disruption, with Cyclophilin A; read-out: KRAS G12C FRET data IC50
Text: (§1) Disruption of […] Ras-binding Domain (BRAF^RBD) Interaction with K-Ras by Compounds of the Invention (also Called a FRET Assay or an MOA Assay)
(§2) Note—The following protocol describes a procedure for monitoring disruption of K-Ras G12C (GMP-PNP) binding to BRAF^RBD by a compound of the invention. This protocol may also be executed substituting other Ras proteins or nucleotides, such as K-Ras G12D and K-Ras G13D.
(§3) The purpose of this biochemical assay was to measure the ability of test compounds to facilitate ternary complex formation between a nucleotide-loaded K-Ras isoform and Cyclophilin A; the resulting ternary complex disrupts binding to a BRAF^RBD construct, inhibiting K-Ras signaling through a RAF effector. Data is reported as IC50 values.
(§4) In assay buffer containing 25 mM HEPES pH 7.3, 0.002% Tween20, 0.1% BSA, 100 mM NaCl and 5 mM MgCl2, tagless Cyclophilin A, His6-K-Ras-GMPPNP, and GST-BRAF^RBD were combined in a 384-well assay plate at final concentrations of 25 μM, 12.5 nM, and 50 nM, respectively. Compound was present in plate wells as a 10-point 3-fold dilution series starting at a final concentration of 30 μM. After incubation at 25° C. for 3 hours, a mixture of anti-His Eu-W1024 and anti-GST allophycocyanin was then added to assay sample wells at final concentrations of 10 nM and 50 nM, respectively, and the reaction incubated for an additional 1.5 hours. […] Compounds that facilitate disruption of a K-Ras:RAF complex were identified as those eliciting a decrease in the TR-FRET ratio relative to DMSO control wells.
as §3, with “is” for “was”, “Ras” for “K-Ras”, “cyclophilin” for “Cyclophilin”, “effector.” for “effector. Data is reported as IC50 values.”
In assay buffer containing 25 mM HEPES pH 7.3, 0.002% Tween20, 0.1% BSA, 100 mM NaCl and 5 mM MgCl2, tagless Cyclophilin A, His6-K-Ras-GMPPNP (or other Ras variant), and GST-BRAF^RBD are combined in a 384-well assay plate at final concentrations of 25 μM, 12.5 nM and 50 nM, respectively. Compound is present in plate wells as a 10-point 3-fold dilution series starting at a final concentration of 30 μM. After incubation at 25° C. for 3 hours, a mixture of Anti-His Eu-W1024 and anti-GST allophycocyanin is then added to assay sample wells at final concentrations of 10 nM and 50 nM, respectively, and the reaction incubated for an additional 1.5 hours. […] Compounds that facilitate disruption of a Ras:RAF complex are identified as those eliciting a decrease in the TR-FRET ratio relative to DMSO control wells.

KRAS WT = KRAS WT (Homo sapiens, UniProt P01116+P62937); conditions: Ras-Raf disruption, with Cyclophilin A; read-out: KRAS WT FRET data IC50
Sequence of KRAS WT (P01116 1-169 isoform P01116-2 limits assumed): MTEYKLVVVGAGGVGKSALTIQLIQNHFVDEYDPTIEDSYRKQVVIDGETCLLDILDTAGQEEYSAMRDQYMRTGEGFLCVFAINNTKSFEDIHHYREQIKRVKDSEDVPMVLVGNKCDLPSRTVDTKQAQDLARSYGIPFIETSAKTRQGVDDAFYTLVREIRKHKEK
Sequence of KRAS WT (P62937 whole entry): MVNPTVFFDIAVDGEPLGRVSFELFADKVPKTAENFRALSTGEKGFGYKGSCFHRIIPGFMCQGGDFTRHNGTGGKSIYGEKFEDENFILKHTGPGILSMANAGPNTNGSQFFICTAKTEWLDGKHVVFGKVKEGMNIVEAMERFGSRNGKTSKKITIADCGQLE
Text: as §1, §2, §3, §4

KRAS G13D = KRAS G13D (Homo sapiens, UniProt P01116+P62937, G13D); conditions: Ras-Raf disruption, with Cyclophilin A; read-out: KRAS G13D FRET data IC50
Sequence of KRAS G13D (P01116 1-169 isoform P01116-2 G13D limits assumed): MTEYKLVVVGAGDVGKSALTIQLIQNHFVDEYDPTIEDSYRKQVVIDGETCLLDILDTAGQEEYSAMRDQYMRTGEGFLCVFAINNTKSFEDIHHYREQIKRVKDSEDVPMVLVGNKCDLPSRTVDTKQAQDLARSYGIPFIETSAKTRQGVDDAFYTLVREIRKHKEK
Sequence of KRAS G13D (P62937 whole entry): as the sequence (P62937 whole entry) above
Text: as §1, §2, §3, §4

KRAS G12V = KRAS G12V (Homo sapiens, UniProt P01116+P62937, G12V); conditions: Ras-Raf disruption, with Cyclophilin A; read-out: KRAS G12V FRET data IC50
Sequence of KRAS G12V (P01116 1-169 isoform P01116-2 G12V limits assumed): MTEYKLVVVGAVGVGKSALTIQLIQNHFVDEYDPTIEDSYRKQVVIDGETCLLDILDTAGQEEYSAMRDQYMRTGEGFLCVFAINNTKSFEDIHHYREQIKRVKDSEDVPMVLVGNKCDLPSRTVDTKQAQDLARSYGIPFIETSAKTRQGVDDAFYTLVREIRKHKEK
Sequence of KRAS G12V (P62937 whole entry): as the sequence (P62937 whole entry) above
Text: as §1, §2, §3, §4

KRAS G13C = KRAS G13C (Homo sapiens, UniProt P01116+P62937, G13C); conditions: Ras-Raf disruption, with Cyclophilin A; read-out: KRAS G13C FRET data IC50
Sequence of KRAS G13C (P01116 1-169 isoform P01116-2 G13C limits assumed): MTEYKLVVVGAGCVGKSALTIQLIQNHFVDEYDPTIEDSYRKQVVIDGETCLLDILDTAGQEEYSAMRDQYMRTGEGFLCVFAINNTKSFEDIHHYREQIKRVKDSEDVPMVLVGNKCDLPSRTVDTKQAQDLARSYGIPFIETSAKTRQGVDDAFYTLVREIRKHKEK
Sequence of KRAS G13C (P62937 whole entry): as the sequence (P62937 whole entry) above
Text: as §1, §2, §3, §4

KRAS G12D = KRAS G12D (Homo sapiens, UniProt P01116+P62937, G12D); conditions: Ras-Raf disruption, with Cyclophilin A; read-out: KRAS G12D FRET data IC50
Sequence of KRAS G12D (P01116 1-169 isoform P01116-2 G12D limits assumed): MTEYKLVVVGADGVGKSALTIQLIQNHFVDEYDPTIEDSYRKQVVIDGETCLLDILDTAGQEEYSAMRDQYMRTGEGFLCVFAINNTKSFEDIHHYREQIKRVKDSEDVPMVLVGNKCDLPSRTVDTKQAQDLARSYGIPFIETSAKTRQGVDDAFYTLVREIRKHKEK
Sequence of KRAS G12D (P62937 whole entry): as the sequence (P62937 whole entry) above
Text: as §1, §2, §3, §4

KRAS G12S = KRAS G12S (Homo sapiens, UniProt P01116+P62937, G12S); conditions: Ras-Raf disruption, with Cyclophilin A; read-out: KRAS G12S FRET data IC50
Sequence of KRAS G12S (P01116 1-169 isoform P01116-2 G12S limits assumed): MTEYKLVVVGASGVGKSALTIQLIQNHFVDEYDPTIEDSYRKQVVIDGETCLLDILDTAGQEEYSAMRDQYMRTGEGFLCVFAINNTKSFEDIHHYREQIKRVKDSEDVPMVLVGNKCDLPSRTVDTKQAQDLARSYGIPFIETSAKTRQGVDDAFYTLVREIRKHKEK
Sequence of KRAS G12S (P62937 whole entry): as the sequence (P62937 whole entry) above
Text: as §1, §2, §3, §4

NRAS G12C = NRAS G12C (Homo sapiens, UniProt P01111+P62937, G12C); conditions: NRAS G12C; read-out: NRAS G12C FRET data IC50
Sequence of NRAS G12C (P01111 whole entry G12C): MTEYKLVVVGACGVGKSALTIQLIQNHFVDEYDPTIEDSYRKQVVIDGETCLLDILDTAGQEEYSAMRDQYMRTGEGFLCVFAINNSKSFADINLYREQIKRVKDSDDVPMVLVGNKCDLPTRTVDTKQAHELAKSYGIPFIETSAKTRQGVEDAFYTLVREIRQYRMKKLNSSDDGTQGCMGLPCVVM
Sequence of NRAS G12C (P62937 whole entry): as the sequence (P62937 whole entry) above
Text: as §1, §2, §3, §4

Sequence of KRAS G12C (P01116 1-169 isoform P01116-2 G12C limits assumed): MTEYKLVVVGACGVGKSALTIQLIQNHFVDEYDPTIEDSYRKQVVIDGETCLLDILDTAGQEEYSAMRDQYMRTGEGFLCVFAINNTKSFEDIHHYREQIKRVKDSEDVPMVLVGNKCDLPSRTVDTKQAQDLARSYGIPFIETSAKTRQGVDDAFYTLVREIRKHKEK
Sequence of KRAS G12C (P62937 whole entry, the tested form may be a part): as the sequence (P62937 whole entry) above

SMILES	IC50 (KRAS G12C) [nM]	IC50 (KRAS WT) [nM]	IC50 (KRAS G13D) [nM]	IC50 (KRAS G12V) [nM]	IC50 (KRAS G13C) [nM]	IC50 (KRAS G12D) [nM]	IC50 (KRAS G12S) [nM]	IC50 (NRAS G12C) [nM]
CCn1c(-c2cnccc2COC)c2c3cc(ccc31)-c1cc(O)cc(c1)C[C@H](NC(=O)[C@H](C(C)C)N(C)C(=O)CN(C)C(=O)[C@H]1[C@@H](C(=O)OC)N1[S@+]([O-])C(C)(C)C)C(=O)N1CCC[C@H](N1)C(=O)OCC(C)(C)C2 (stereo partly drawn) [Example 48]	10 to 100	100 to 1000	100 to 1000	10 to 100	10 to 100	100 to 1000	10 to 100	10 to 100
CCn1c(-c2cccnc2[C@H](C)OC)c2c3cc(ccc31)-c1cc(O)cc(c1)C[C@H](NC(=O)[C@H](C(C)C)N1CCC3(CCN(C(=O)[C@H]4CN4)C3)C1=O)C(=O)N1CCC[C@H](N1)C(=O)OCC(C)(C)C2 (stereo partly drawn) [Example 59]	10 to 100	10 to 100	100 to 1000	10 to 100	10 to 100	10 to 100	10 to 100	< 10
CCn1c(-c2cccnc2[C@H](C)OC)c2c3cc(ccc31)-c1cccc(c1)C[C@H](NC(=O)[C@H](C(C)C)N(C)C(=O)CCN=C=NCc1ccccc1OC)C(=O)N1CCC[C@H](N1)C(=O)OCC(C)(C)C2 [Example 73]	10 to 100	1000 to 10000	1000 to 10000	> 10000	1000 to 10000	100 to 1000	1000 to 10000	10 to 100
CCn1c(-c2cccnc2[C@H](C)OC)c2c3cc(ccc31)-c1cccc(c1)C[C@H](NC(=O)[C@H](C(C)C)N(C)C(=O)CCN=C=NCCOC)C(=O)N1CCC[C@H](N1)C(=O)OCC(C)(C)C2 [Example 74]	10 to 100	1000 to 10000	1000 to 10000	1000 to 10000	100 to 1000	100 to 1000	1000 to 10000	10 to 100
CCn1c(-c2cccnc2[C@H](C)OC)c2c3cc(ccc31)-c1cccc(c1)C[C@H](NC(=O)[C@H](C(C)C)N(C)C(=O)[C@H]1CC[C@H](N=C=NCc3ccccc3OC)C1)C(=O)N1CCC[C@H](N1)C(=O)OCC(C)(C)C2 [Example 76]	100 to 1000	1000 to 10000	> 10000	> 10000	100 to 1000	1000 to 10000	> 10000	100 to 1000
CCn1c(-c2cccnc2[C@H](C)OC)c2c3cc(ccc31)-c1cccc(c1)C[C@H](NC(=O)[C@H](C(C)C)N(C)C(=O)[C@H]1C[C@H](N=C=NCc3ccccc3OC)C1)C(=O)N1CCC[C@H](N1)C(=O)OCC(C)(C)C2 [Example 77]	10 to 100	1000 to 10000	> 10000	1000 to 10000	10 to 100	1000 to 10000	1000 to 10000	10 to 100
CCn1c(-c2cccnc2[C@H](C)OC)c2c3cc(ccc31)-c1cccc(c1)C[C@H](NC(=O)[C@H](C(C)C)N(C)C(=O)[C@H]1C[C@H](N=C=NCCOC)C1)C(=O)N1CCC[C@H](N1)C(=O)OCC(C)(C)C2 [Example 78]	10 to 100	1000 to 10000	> 10000	1000 to 10000	10 to 100	1000 to 10000	1000 to 10000	10 to 100
CCn1c(-c2cccnc2[C@H](C)OC)c2c3cc(ccc31)-c1cc(O)cc(c1)C[C@H](NC(=O)[C@H](C(C)C)N(C)C(=O)c1ncc(NC(=O)[C@@H]3CN3)n1C)C(=O)N1CCC[C@H](N1)C(=O)OCC(C)(C)C2 [Example 83]	10 to 100	10 to 100	10 to 100	10 to 100	10 to 100	100 to 1000	10 to 100	10 to 100
CCn1c(-c2cccnc2[C@H](C)OC)c2c3cc(ccc31)-c1cc(O)cc(c1)C[C@H](NC(=O)[C@H](C(C)C)N(C)C(=O)c1ncc(NC(=O)[C@H]3CN3)n1C)C(=O)N1CCC[C@H](N1)C(=O)OCC(C)(C)C2 [Example 84]	10 to 100	100 to 1000	100 to 1000	100 to 1000	< 10	1000 to 10000	100 to 1000	10 to 100
CCn1c(-c2cccnc2[C@H](C)OC)c2c3cc(ccc31)-c1cc(O)cc(c1)C[C@H](NC(=O)[C@H](C(C)C)N(C)C(=O)C1CCN(C(=O)[C@H]3CN3)CC1)C(=O)N1CCC[C@H](N1)C(=O)OCC(C)(C)C2 [Example 86]	10 to 100	10 to 100	10 to 100	100 to 1000	10 to 100	100 to 1000	10 to 100	< 10
CCn1c(-c2cccnc2[C@H](C)OC)c2c3cc(ccc31)-c1cc(O)cc(c1)C[C@H](NC(=O)[C@H](C(C)C)N(C)C(=O)c1ccc([C@@H]3CN3)nc1)C(=O)N1CCC[C@H](N1)C(=O)OCC(C)(C)C2 [Example 87]	10 to 100	100 to 1000	100 to 1000	100 to 1000	10 to 100	1000 to 10000	100 to 1000	10 to 100
CCn1c(-c2cccnc2[C@H](C)OC)c2c3cc(ccc31)-c1cc(O)cc(c1)C[C@H](NC(=O)[C@H](C(C)C)N(C)C(=O)C1CCN(C(=O)[C@@H]3CN3)CC1)C(=O)N1CCC[C@H](N1)C(=O)OCC(C)(C)C2 [Example 89]	10 to 100	10 to 100	10 to 100	100 to 1000	< 10	100 to 1000	10 to 100	10 to 100
CCn1c(-c2cccnc2[C@H](C)OC)c2c3cc(ccc31)-c1cc(O)cc(c1)C[C@H](NC(=O)[C@H](C(C)C)N(C)C(=O)[C@@H]1CN1)C(=O)N1CCC[C@H](N1)C(=O)OCC(C)(C)C2 [Example 100]	10 to 100	10 to 100	10 to 100	10 to 100	10 to 100	100 to 1000	10 to 100	10 to 100
CCn1c(-c2cccnc2[C@H](C)OC)c2c3cc(ccc31)-c1cc(O)cc(c1)C[C@H](NC(=O)[C@H](C(C)C)N1CCC3(CN(C(=O)[C@@H]4CN4)C3)C1=O)C(=O)N1CCC[C@H](N1)C(=O)OCC(C)(C)C2 [Example 109]	< 10	10 to 100	10 to 100	100 to 1000	10 to 100	1000 to 10000	100 to 1000	< 10
CCn1c(-c2cccnc2[C@H](C)OC)c2c3cc(ccc31)-c1cc(O)cc(c1)C[C@H](NC(=O)[C@H](C(C)C)N(C)C(=O)[C@H]1CN1)C(=O)N1CCC[C@H](N1)C(=O)OCC(C)(C)C2 [Example 112]	100 to 1000	10 to 100	100 to 1000	100 to 1000	10 to 100	100 to 1000	100 to 1000	100 to 1000
